{
  "source": "patent US20250360108A1",
  "about": "“CATALYTIC INHIBITOR OF PROTEIN PHOSPHATASE 5 ACTIVATES THE EXTRINSIC APOPTOTIC PATHWAY BY DISRUPTING COMPLEX II” (The Research Foundation for the State University of New York, priority 2022, published 2025)",
  "key": {"[1]": {"tested_on": "786-O cells", "assay": "Induction of apoptosis by immunoblotting of apoptotic markers", "format": "cell-based, human", "protocol": "Method Details Cell Transfection and Treatment: Cultured cells were split and then transfected the following day when about 40% confluent with each construct using Mirus TranslT-2020 (MirusBio) according to manufacturer's protocol. Cells were incubated at 37° C. and then extracted or collected for analysis after 24 hrs (HEK293) or 72 hrs (ccRCC cell lines). Short interfering RNA (siRNA) scramble control and PPP5C (PP5) targeting duplexes were purchased from OriGene (SKU: SR321403A, SR321403B, and SR321403C). Indicated cells were transiently transfected with the siRNA using Mirus TranslT-2020. For PP5 knock-down, either 30 nM of control siRNA or 10 nM of each PP5 siRNA duplex (A, B and C) were mixed prior to transfection. Cells were incubated at 37° C. for 72 hrs, then harvested for protein extraction. […] Cells were then harvested for protein extraction.\nProtein Extraction, Immunoprecipitation and Immunoblotting: Protein extraction from mammalian cells was carried out using methods previously described. Cell lysates were quantified using 1× Bradford reagent (Biorad). For immunoprecipitation, cell lysates were incubated with anti-FLAG antibody conjugated beads (Sigma) or anti-HA conjugated beads (ThermoFisher Scientific) at 4° C. for 2 hrs. Endogenous IPs were achieved by incubating lysate with anti-PP5 antibody (Cell Signaling), anti-FADD antibody (Cell Signaling), or anti-RIPK1 antibody (Cell Signaling) overnight followed by protein G agarose (Invitrogen) at 4° C. for 2 hrs. Immunopellets were washed 4 times with fresh lysis buffer (20 mM Tris-HCl (pH 7.4), 100 mM NaCl, 1 mM MgCl2, 0.1% NP40, protease inhibitor cocktail (Roche), and PhosSTOP (Roche)) and eluted in 5× Laemmli buffer. Precipitated proteins were separated by SDS-PAGE and transferred to nitrocellulose membranes. Co-immunoprecipitated proteins or proteins from cell lysate were detected with antibodies recognizing FLAG, 6×-His (ThermoFisher Scientific), GAPDH (ENZO Life Sciences), Cdc37 (StressMarq), GR, phospho-GR (S211), PP5, caspase-3, cleaved caspase-3, caspase-8, cleaved caspase-8, cleaved caspase-7, cleaved-PARP, phospho-RIPK1 (S166), phospho-FADD (S194), PP2A-C, VHL (Cell Signaling), phospho-RIPK1 (S161) (Invitrogen), PP5 and phospho-Cdc37 (S13) (Abcam). Secondary antibodies raised against mouse and rabbit (Cell Signaling) were used (See Key Resources Table)."}, "[2]": {"tested_on": "VHL-null ccRCC cells", "assay": "Flow cytometric cell death by propidium iodide staining", "format": "cell-based, human", "details": "30 or 40 μM; A498 and 786-O versus Caki-1 and Caki-2", "protocol": "Flow Cytometric Analysis: Fluorescence-activated cell sorting (FACS) analysis was performed according to the protocol in the Annexin V:FITC kit (Bio-Rad). In brief, cells were plated in 10 cm dish at 0.5×10^6 and incubated at 37° C. for 18 hrs. […] Cells were trypsinized, collected and washed once with 1× binding buffer (included in the kit). Propidium iodide was added, then the cells were immediately run on a Becton Dickinson LSRFortessa instrument (BD Biosciences). Data were analyzed using FlowJo software version 10.7.1 for Windows (BD Biosciences)."}, "[3]": {"tested_on": "S194-FADD", "assay": "Phosphorylation of S194-FADD by immunoblot after IC261", "format": "cell-based, human", "details": "786-O and A498 cells, indicated amounts, 24 hrs", "protocol": "Method Details Cell Transfection and Treatment: Cultured cells were split and then transfected the following day when about 40% confluent with each construct using Mirus TranslT-2020 (MirusBio) according to manufacturer's protocol. Cells were incubated at 37° C. and then extracted or collected for analysis after 24 hrs (HEK293) or 72 hrs (ccRCC cell lines). Short interfering RNA (siRNA) scramble control and PPP5C (PP5) targeting duplexes were purchased from OriGene (SKU: SR321403A, SR321403B, and SR321403C). Indicated cells were transiently transfected with the siRNA using Mirus TranslT-2020. For PP5 knock-down, either 30 nM of control siRNA or 10 nM of each PP5 siRNA duplex (A, B and C) were mixed prior to transfection. […]\nProtein Extraction, Immunoprecipitation and Immunoblotting: Protein extraction from mammalian cells was carried out using methods previously described. Cell lysates were quantified using 1× Bradford reagent (Biorad). […] Co-immunoprecipitated proteins or proteins from cell lysate were detected with antibodies recognizing FLAG, 6×-His (ThermoFisher Scientific), GAPDH (ENZO Life Sciences), Cdc37 (StressMarq), GR, phospho-GR (S211), PP5, caspase-3, cleaved caspase-3, caspase-8, cleaved caspase-8, cleaved caspase-7, cleaved-PARP, phospho-RIPK1 (S166), phospho-FADD (S194), PP2A-C, VHL (Cell Signaling), phospho-RIPK1 (S161) (Invitrogen), PP5 and phospho-Cdc37 (S13) (Abcam). […]"}, "[4]": {"target": "T1, PP5 (Homo sapiens, UniProt P53041)", "T1 sequence (P53041 1-499)": "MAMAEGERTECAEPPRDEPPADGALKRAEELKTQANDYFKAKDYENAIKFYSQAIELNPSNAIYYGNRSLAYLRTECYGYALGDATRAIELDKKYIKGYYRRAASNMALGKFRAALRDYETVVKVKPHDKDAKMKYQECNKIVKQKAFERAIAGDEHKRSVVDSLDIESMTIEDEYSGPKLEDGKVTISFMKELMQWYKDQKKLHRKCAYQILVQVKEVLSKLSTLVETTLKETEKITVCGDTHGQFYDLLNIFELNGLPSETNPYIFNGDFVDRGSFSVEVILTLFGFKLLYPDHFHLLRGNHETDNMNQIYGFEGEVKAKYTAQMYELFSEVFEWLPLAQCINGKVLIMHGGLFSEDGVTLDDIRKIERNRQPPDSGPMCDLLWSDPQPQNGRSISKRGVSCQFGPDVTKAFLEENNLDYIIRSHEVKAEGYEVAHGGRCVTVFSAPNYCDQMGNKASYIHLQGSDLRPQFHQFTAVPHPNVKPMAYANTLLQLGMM", "details": "cited from earlier work"}, "[5]": {"tested_on": "PP1", "details": "cited from earlier work"}},
  "data": [
    {"smiles": "Cc1noc(C)c1S(=O)(=O)Nc1ccc(Cc2ccccc2)cc1", "note": "[Compound P053, (3,5-Dimethyl-4-isoxazolylsulfonyl)(p-benzylphenyl)amine]", "values": [
      {"measurement": "cleavage of caspase 3 and PARP", "setting": "[1]; 10 μM, 24 hrs", "result": "increased cleavage"},
      {"measurement": "cleavage of caspase 8 versus caspase 9 (extrinsic apoptosis)", "setting": "[1]; 10 μM, 24 hrs", "result": "cleavage of caspase 8 but not caspase 9"},
      {"measurement": "induction of apoptosis (cleaved PARP, cleaved caspase 8)", "setting": "[1]; 10 μM, 24 hrs", "result": "had the ability to induce apoptosis"},
      {"measurement": "cell death (PI staining)", "setting": "[2]", "result": "selectively caused cell death"}
    ]},
    {"smiles": "COc1cc(OC)c(C=C2C(O)=Nc3ccccc32)c(OC)c1", "note": "[IC261, reference compound]", "values": [
      {"measurement": "induction of extrinsic apoptosis (apoptotic markers)", "setting": "[1]; indicated amounts, 16 hrs", "result": "induced extrinsic apoptosis in a dose-dependent manner"},
      {"measurement": "S194-FADD phosphorylation", "setting": "[3]", "result": "increase in S194-FADD phosphorylation"}
    ]},
    {"smiles": "CN1CCN(C(=O)C2C(C(=O)O)[C@H]3CC[C@@H]2O3)CC1", "note": "(some centres unmarked) [LB-100]", "values": [
      {"measurement": "inhibition of PP5", "setting": "[4]", "result": "inhibit"},
      {"measurement": "inhibition of PP1", "setting": "[5]", "result": "inhibit"}
    ]}
  ]
}
